Reference: ChEMBL document CHEMBL3232987, “Investigation of Ugi-4CC derived 1H-tetrazol-5-yl-(aryl) methyl piperazinyl-6-fluoro-4-oxo-1,4-dihydroquinoline-3-carboxylic acid: synthesis, biology and 3D-QSAR analysis” (Eur J Med Chem, 2014)
≈ marks a conversion by molar mass, not a printed value.

Experiments:
[1] = tested on: Staphylococcus aureus; test: Antibacterial activity against gentamicin-resistant Staphylococcus aureus ATCC 33592 after 24 hrs by spectrophotometric analysis; format: functional, organism-based
[2] = tested on: Staphylococcus aureus; test: Antibacterial activity against Staphylococcus aureus ATCC 25923 after 24 hrs by spectrophotometric analysis; format: functional, organism-based
[3] = tested on: Staphylococcus aureus; test: Antibacterial activity against Staphylococcus aureus ATCC 29213 after 24 hrs by spectrophotometric analysis; format: functional, organism-based
[4] = tested on: Staphylococcus aureus; test: Antibacterial activity against gentamicin-resistant Staphylococcus aureus ATCC 33592 by NCCLS two-fold dilution method; format: functional
[5] = tested on: Staphylococcus aureus; test: Antibacterial activity against Staphylococcus aureus ATCC 29213 by NCCLS two-fold dilution method; format: functional
[6] = tested on: Staphylococcus aureus; test: Antibacterial activity against methicillin-resistant Staphylococcus aureus ATCC 700699 by NCCLS two-fold dilution method; format: functional
[7] = tested on: Staphylococcus aureus; test: Antibacterial activity against methicillin-resistant Staphylococcus aureus ATCC 700699 after 24 hrs by spectrophotometric analysis; format: functional, organism-based
[8] = tested on: Staphylococcus aureus; test: Antibacterial activity against Staphylococcus aureus ATCC 25923 by NCCLS two-fold dilution method; format: functional; details: for MIC: Staphylococcus aureus, ATCC 25923
[9] = tested on: Klebsiella pneumoniae; test: Antibacterial activity against Klebsiella pneumoniae after 24 hrs by spectrophotometric analysis; format: functional, organism-based
[10] = tested on: Escherichia coli; test: Antibacterial activity against Escherichia coli after 24 hrs by spectrophotometric analysis; format: functional, organism-based
[11] = Staphylococcus aureus, ATCC 33592, 24 h
[12] = Staphylococcus aureus, ATCC 33592, 24 h, read-out: IC50
[13] = Staphylococcus aureus, ATCC 25923, 24 h
[14] = Staphylococcus aureus, ATCC 25923, 24 h, read-out: IC50
[15] = Staphylococcus aureus, ATCC 29213, 24 h
[16] = Staphylococcus aureus, ATCC 29213, 24 h, read-out: IC50
[17] = Staphylococcus aureus, ATCC 700699, 24 h
[18] = Staphylococcus aureus, ATCC 700699, 24 h, read-out: IC50

Row | Compound | MIC [1, 11] | IC50 [1, 12] | MIC [2, 13] | IC50 [2, 14] | MIC [3, 15] | IC50 [3, 16] | MIC [4] | MIC [5] | MIC [6] | MIC [7, 17] | IC50 [7, 18] | -logMIC [8] | MIC [8] | IC50 [1] | IC50 [9] | IC50 [10] | IC50 [2] | IC50 [3] | IC50 [7]
1 | COc1ccc(C(c2nnnn2C2CCCCC2)N2CCN(c3cc4c(cc3F)c(=O)c(C(=O)O)cn4Cc3ccc(C(F)(F)F)cc3)CC2)c(OC)c1OC (stereo not drawn) | > 50 µg/mL | 50 µg/mL (≈ 64.1 µM) | 50 µg/mL (≈ 64.1 µM) | > 50 µg/mL | > 50 µg/mL | > 50 µg/mL | > 50 µg/mL | > 50 µg/mL | > 50 µg/mL | > 50 µg/mL | > 50 µg/mL | 4.193 | 50 µg/mL (≈ 64.1 µM) |  |  |  |  |  | 
2 | GENTAMICIN |  |  |  |  |  |  |  |  |  |  |  |  |  | > 50 µg/mL | 1.7 µg/mL | 1.7 µg/mL | 1.7 µg/mL | > 50 µg/mL | > 50 µg/mL
3 | CC(C)c1ccc(C(c2nnnn2C(C)(C)C)N2CCN(c3cc4c(cc3F)c(=O)c(C(=O)O)cn4Cc3ccc(C(F)(F)F)cc3)CC2)cc1 (stereo not drawn) | 0.87 µg/mL (≈ 1.23 µM) | 0.8 µg/mL (≈ 1.13 µM) | 3.12 µg/mL (≈ 4.42 µM) | 1.8 µg/mL (≈ 2.55 µM) | 3.1 µg/mL (≈ 4.39 µM) | 1.5 µg/mL (≈ 2.13 µM) | 3.12 µg/mL (≈ 4.42 µM) | 6.25 µg/mL (≈ 8.86 µM) | 3.12 µg/mL (≈ 4.42 µM) | 1.6 µg/mL (≈ 2.27 µM) | 1.4 µg/mL (≈ 1.98 µM) | 4.149 | 3.12 µg/mL (≈ 4.42 µM) |  |  |  |  |  | 
4 | CCn1cc(C(=O)O)c(=O)c2cc(F)c(N3CCN(C(c4ccc(C(C)C)cc4)c4nnnn4C(C)(C)C)CC3)cc21 (stereo not drawn) | 50 µg/mL (≈ 86.9 µM) | > 50 µg/mL | 50 µg/mL (≈ 86.9 µM) | 50 µg/mL (≈ 86.9 µM) | > 50 µg/mL | 50 µg/mL (≈ 86.9 µM) | > 50 µg/mL | 50 µg/mL (≈ 86.9 µM) | 50 µg/mL (≈ 86.9 µM) | 50 µg/mL (≈ 86.9 µM) | 50 µg/mL (≈ 86.9 µM) | 4.06 | 50 µg/mL (≈ 86.9 µM) |  |  |  |  |  | 
5 | CC(C)(C)n1nnnc1C(c1ccncc1)N1CCN(c2cc3c(cc2F)c(=O)c(C(=O)O)cn3Cc2ccc(C(F)(F)F)cc2)CC1 (stereo not drawn) | 50 µg/mL (≈ 75.2 µM) | 50 µg/mL (≈ 75.2 µM) | 50 µg/mL (≈ 75.2 µM) | 50 µg/mL (≈ 75.2 µM) | 50 µg/mL (≈ 75.2 µM) | 50 µg/mL (≈ 75.2 µM) | 50 µg/mL (≈ 75.2 µM) | 50 µg/mL (≈ 75.2 µM) | 50 µg/mL (≈ 75.2 µM) | 50 µg/mL (≈ 75.2 µM) | 50 µg/mL (≈ 75.2 µM) | 4.123 | 50 µg/mL (≈ 75.2 µM) |  |  |  |  |  | 
6 | CCn1cc(C(=O)O)c(=O)c2cc(F)c(N3CCN(C(c4ccc(OC)c5ccccc45)c4nnnn4C(C)(C)C)CC3)cc21 (stereo not drawn) | 50 µg/mL (≈ 81.5 µM) | 50 µg/mL (≈ 81.5 µM) | 18 µg/mL (≈ 29.3 µM) | 7 µg/mL (≈ 11.4 µM) | 50 µg/mL (≈ 81.5 µM) | 50 µg/mL (≈ 81.5 µM) | 12.5 µg/mL (≈ 20.4 µM) | 25 µg/mL (≈ 40.7 µM) | 12.5 µg/mL (≈ 20.4 µM) | 6.9 µg/mL (≈ 11.2 µM) | 7.5 µg/mL (≈ 12.2 µM) | 4.69 | 12.5 µg/mL (≈ 20.4 µM) |  |  |  |  |  | 
7 | CCn1cc(C(=O)O)c(=O)c2cc(F)c(N3CCN(C(c4ccc(OC)c5ccccc45)c4nnnn4C4CCCCC4)CC3)cc21 (stereo not drawn) | 4.7 µg/mL (≈ 7.35 µM) | 3.6 µg/mL (≈ 5.63 µM) | 4.4 µg/mL (≈ 6.88 µM) | 1.7 µg/mL (≈ 2.66 µM) | 6.9 µg/mL (≈ 10.8 µM) | 3.6 µg/mL (≈ 5.63 µM) | 6.25 µg/mL (≈ 9.77 µM) | 12.5 µg/mL (≈ 19.5 µM) | 25 µg/mL (≈ 39.1 µM) | 9 µg/mL (≈ 14.1 µM) | 4.06 µg/mL (≈ 6.35 µM) | 5.01 | 6.25 µg/mL (≈ 9.77 µM) |  |  |  |  |  | 
8 | CCn1cc(C(=O)O)c(=O)c2cc(F)c(N3CCN(C(c4ccc(C(C)C)cc4)c4nnnn4C4CCCCC4)CC3)cc21 (stereo not drawn) | 1.6 µg/mL (≈ 2.66 µM) | 1.5 µg/mL (≈ 2.49 µM) | 19 µg/mL (≈ 31.6 µM) | 8 µg/mL (≈ 13.3 µM) | 3.3 µg/mL (≈ 5.48 µM) | 3.1 µg/mL (≈ 5.15 µM) | 3.12 µg/mL (≈ 5.19 µM) | 12.5 µg/mL (≈ 20.8 µM) | 50 µg/mL (≈ 83.1 µM) | 50 µg/mL (≈ 83.1 µM) | 50 µg/mL (≈ 83.1 µM) | 4.682 | 12.5 µg/mL (≈ 20.8 µM) |  |  |  |  |  | 
9 | CC(C)c1ccc(C(c2nnnn2C2CCCCC2)N2CCN(c3cc4c(cc3F)c(=O)c(C(=O)O)cn4Cc3ccc(C(F)(F)F)cc3)CC2)cc1 (stereo not drawn) | > 50 µg/mL | 50 µg/mL (≈ 68.3 µM) | 50 µg/mL (≈ 68.3 µM) | > 50 µg/mL | > 50 µg/mL | 50 µg/mL (≈ 68.3 µM) | > 50 µg/mL | > 50 µg/mL | > 50 µg/mL | 50 µg/mL (≈ 68.3 µM) | > 50 µg/mL | 4.165 | 50 µg/mL (≈ 68.3 µM) |  |  |  |  |  | 
10 | CC(C)(C)n1nnnc1C(c1ccccc1)N1CCN(c2cc3c(cc2F)c(=O)c(C(=O)O)cn3Cc2ccc(C(F)(F)F)cc2)CC1 (stereo not drawn) | 50 µg/mL (≈ 75.3 µM) | 50 µg/mL (≈ 75.3 µM) | 50 µg/mL (≈ 75.3 µM) | 50 µg/mL (≈ 75.3 µM) | 50 µg/mL (≈ 75.3 µM) | 50 µg/mL (≈ 75.3 µM) | 12.5 µg/mL (≈ 18.8 µM) | 25 µg/mL (≈ 37.7 µM) | 25 µg/mL (≈ 37.7 µM) | 50 µg/mL (≈ 75.3 µM) | 50 µg/mL (≈ 75.3 µM) | 4.122 | 50 µg/mL (≈ 75.3 µM) |  |  |  |  |  | 
